Laboratory results taken from patent US20230338378A1, “Methods of Administering Myosin Inhibitors” (MYOKARDIA, INC., priority 2022, published 2023).

Assays:
HCM patients = experiment: Meta-analysis of QTc across clinical studies in HCM patients; assay type: in vivo, human; conditions: therapeutic exposure range
From the text: The effect of coadministration of MAVACAMTEN with QT-prolonging drugs or in patients with potassium channel variants resulting in a long QT interval have not been characterized.

CYP3A4 = CYP3A4 (Homo sapiens, UniProt P08684); experiment: In vitro CYP inhibition; assay type: in vitro ADME; conditions: In Vitro Studies; clinically relevant concentrations
Sequence of CYP3A4 (P08684 whole entry): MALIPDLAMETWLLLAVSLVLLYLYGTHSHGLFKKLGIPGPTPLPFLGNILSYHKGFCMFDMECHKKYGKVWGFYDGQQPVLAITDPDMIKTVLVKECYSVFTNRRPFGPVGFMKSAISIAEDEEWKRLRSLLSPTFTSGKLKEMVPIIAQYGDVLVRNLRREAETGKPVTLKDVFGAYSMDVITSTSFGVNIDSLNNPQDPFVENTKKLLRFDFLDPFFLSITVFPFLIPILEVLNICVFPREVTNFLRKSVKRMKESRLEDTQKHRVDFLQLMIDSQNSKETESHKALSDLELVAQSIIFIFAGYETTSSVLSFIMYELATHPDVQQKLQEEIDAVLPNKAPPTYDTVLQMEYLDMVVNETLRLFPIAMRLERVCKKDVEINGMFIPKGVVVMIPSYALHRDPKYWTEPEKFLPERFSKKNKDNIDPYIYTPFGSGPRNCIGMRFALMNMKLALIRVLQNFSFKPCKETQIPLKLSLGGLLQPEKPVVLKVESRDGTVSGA

rasH2 transgenic mouse = experiment: 6-month rasH2 transgenic mouse carcinogenicity study; assay type: in vivo
healthy volunteers = experiment: Cardiac electrophysiology (QTc) in healthy volunteers; assay type: in vivo, human
From the text: The mechanism of the QT prolongation effect is not known.

[1] = Pharmacokinetics in hepatic impairment; assay type: in vivo, human; conditions: mild (Child-Pugh A) or moderate (Child-Pugh B) hepatic impairment vs normal hepatic function
CYP2B6 [2] = experiment: In vitro CYP induction; assay type: in vitro ADME; conditions: In Vitro Studies
[3] = tested on: organic cation transporters (OCTs); experiment: In vitro transporter inhibition; assay type: in vitro ADME; conditions: In Vitro Studies
BCRP = BCRP (Homo sapiens, UniProt Q9UNQ0); experiment: In vitro transporter inhibition; assay type: in vitro ADME; conditions: In Vitro Studies
Sequence of BCRP (Q9UNQ0 whole entry): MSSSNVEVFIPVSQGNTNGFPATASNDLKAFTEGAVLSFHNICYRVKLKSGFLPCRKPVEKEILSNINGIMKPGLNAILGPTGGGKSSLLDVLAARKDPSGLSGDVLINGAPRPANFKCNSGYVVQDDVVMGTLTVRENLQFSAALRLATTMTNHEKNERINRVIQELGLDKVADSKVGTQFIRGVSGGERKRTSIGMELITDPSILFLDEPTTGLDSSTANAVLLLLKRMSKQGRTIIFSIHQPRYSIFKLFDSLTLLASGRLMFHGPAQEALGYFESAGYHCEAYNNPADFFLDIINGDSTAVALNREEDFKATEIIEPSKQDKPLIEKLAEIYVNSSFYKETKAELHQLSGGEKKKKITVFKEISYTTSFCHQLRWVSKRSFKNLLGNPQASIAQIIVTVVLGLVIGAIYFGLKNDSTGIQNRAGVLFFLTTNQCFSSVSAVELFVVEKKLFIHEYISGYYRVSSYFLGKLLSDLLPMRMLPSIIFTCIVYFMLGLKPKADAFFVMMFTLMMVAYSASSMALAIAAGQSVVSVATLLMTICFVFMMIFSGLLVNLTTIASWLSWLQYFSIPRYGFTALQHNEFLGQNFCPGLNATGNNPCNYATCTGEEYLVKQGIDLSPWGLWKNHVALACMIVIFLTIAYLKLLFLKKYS

rat = experiment: Rat in vivo micronucleus assay
CYP2C19 [4] = experiment: Pharmacogenomics: CYP2C19 poor vs normal metabolizers, single 15 mg dose; assay type: in vivo, human; conditions: for half-life: human, in vivo, 15 mg
From the text: Mean half-life is prolonged in CYP2C19 PMs compared to NMs (23 days vs. 6 to 9 days, respectively).
Polymorphic CYP2C19 is the main enzyme involved in the metabolism of MAVACAMTEN. An individual carrying two normal function alleles is a NM (e.g., *1/*1). An individual carrying two no function alleles is a PM (e.g., *2/*2, *2/*3, *3/*3).

CYP2C19 [5] = target: CYP2C19 (Homo sapiens, UniProt P33261); experiment: Metabolism through CYP enzymes
Sequence of CYP2C19 (Homo sapiens, UniProt P33261) (P33261 whole entry): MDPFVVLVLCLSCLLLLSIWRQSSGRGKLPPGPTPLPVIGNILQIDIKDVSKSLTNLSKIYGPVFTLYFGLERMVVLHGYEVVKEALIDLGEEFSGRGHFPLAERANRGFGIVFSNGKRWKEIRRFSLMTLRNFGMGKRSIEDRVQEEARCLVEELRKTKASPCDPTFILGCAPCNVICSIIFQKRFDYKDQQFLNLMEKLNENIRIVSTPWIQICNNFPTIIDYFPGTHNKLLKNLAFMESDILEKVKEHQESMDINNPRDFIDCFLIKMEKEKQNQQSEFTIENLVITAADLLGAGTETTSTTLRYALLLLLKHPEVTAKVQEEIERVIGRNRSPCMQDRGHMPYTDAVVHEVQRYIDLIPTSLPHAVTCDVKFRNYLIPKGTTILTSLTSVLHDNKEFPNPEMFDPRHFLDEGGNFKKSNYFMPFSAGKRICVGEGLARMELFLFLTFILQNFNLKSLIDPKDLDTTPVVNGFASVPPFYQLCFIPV

male or female rats = experiment: Reproductive toxicity studies (mating and fertility); assay type: in vivo, rat
[6] = Excretion after a single 25 mg dose of radiolabeled mavacamten; assay type: in vivo; conditions: single 25 mg dose of radiolabeled mavacamten
Description: Following a single 25 mg dose of radiolabeled mavacamten, 7% of the dose was recovered in feces (1% unchanged) and 85% in urine (3% unchanged).

CYP2B6 [7] = target: CYP2B6 (Homo sapiens, UniProt P20813); experiment: In vitro CYP inhibition; assay type: in vitro ADME; conditions: In Vitro Studies
Sequence of CYP2B6 (Homo sapiens, UniProt P20813) (P20813 whole entry): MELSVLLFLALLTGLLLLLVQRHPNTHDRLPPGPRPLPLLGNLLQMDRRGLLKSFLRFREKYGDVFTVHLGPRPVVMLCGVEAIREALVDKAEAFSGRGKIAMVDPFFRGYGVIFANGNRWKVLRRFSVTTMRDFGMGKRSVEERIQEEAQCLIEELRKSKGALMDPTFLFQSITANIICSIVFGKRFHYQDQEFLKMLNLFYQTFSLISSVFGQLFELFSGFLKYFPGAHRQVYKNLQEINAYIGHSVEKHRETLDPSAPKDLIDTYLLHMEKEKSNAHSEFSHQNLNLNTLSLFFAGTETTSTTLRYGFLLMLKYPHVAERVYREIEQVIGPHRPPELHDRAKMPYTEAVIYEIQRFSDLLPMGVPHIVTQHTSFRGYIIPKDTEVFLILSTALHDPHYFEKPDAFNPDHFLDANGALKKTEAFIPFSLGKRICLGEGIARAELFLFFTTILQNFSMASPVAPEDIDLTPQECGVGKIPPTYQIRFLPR

[8] = tested on: adults with symptomatic NYHA class II and III obstructive HCM; conditions: phase 3 EXPLORER-HCM, oHCM patient population (Olivotto et al., 2020); cited from earlier work
[9] = CYP2C19 PMs compared to NMs, single dose of 15 mg

With `CC(C)n1c(=O)cc(N[C@@H](C)c2ccccc2)[nH]c1=O` [mavacamten, (S)-3-Isopropyl-6-((1-phenylethyl)amino)pyrimidine-2,4(1H,3H)-dione] the QTc interval (HCM patients) was “does not suggest clinically relevant increases in the QTc interval”, the “inhibition of CYP3A4” value (CYP3A4) was “not an inhibitor” and the carcinogenicity (rasH2 transgenic mouse; 6-month rasH2 transgenic mouse, up to 2.0 mg/kg/day in males and 3.0 mg/kg/day in females) was “no evidence of carcinogenicity”. For the same compound, the “exposure (AUC) compared to AUC exposures in humans at the MRHD” value (rasH2 transgenic mouse; females, 3.0 mg/kg/day) was 3 fold, the “exposure (AUC) compared to AUC exposures in humans at the MRHD” value (rasH2 transgenic mouse; males, 2.0 mg/kg/day) was 1.8 fold and the QTc interval (healthy volunteers; healthy volunteers, multiple doses up to 25 mg once daily) was “concentration-dependent increase in the QTc interval”. The QTc interval (healthy volunteers; similar exposures during single-dose studies) was “No acute QTc changes”, the “exposure (AUC) increase” value [1] was “up to 220%” and the “induction of CYP2B6” value (CYP2B6 [2]) was “inducer”. For the same compound, the “inhibition of OCTs” value [3] was “does not inhibit”, the “inhibition of BCRP” value (BCRP) was “does not inhibit” and the genotoxicity (rat) was “not genotoxic”. For the same compound, the AUCinf increase (CYP2C19 [4]; [9]) was 241%, the Cmax increase (CYP2C19 [4]; [9]) was 47% and the half-life (CYP2C19 [4]; CYP2C19 NMs) was 6 to 9 days. For the same compound, the half-life (CYP2C19 [4]; CYP2C19 PMs) was 23 days, the “metabolized through CYP2C19” value (CYP2C19 [5]) was 74% and the “effects on the viability and fertility of offspring” value (male or female rats; dams dosed up to 1.5 mg/kg/day) was “no evidence of effects”. The “effects on mating and fertility” value (male or female rats; male or female rats, doses up to 1.2 mg/kg/day) was “no evidence of effects”, the “Plasma exposure (AUC) at the highest dose tested” value (male or female rats; rats) was “the same as in humans at the MRHD” and the “dose recovered in feces” value [6] was 7%. For the same compound, the “dose recovered in feces unchanged” value [6] was 1%, the “dose recovered in urine” value [6] was 85% and the “dose recovered in urine unchanged” value [6] was 3%. For the same compound, the “inhibition of CYP2B6” value (CYP2B6 [7]) was “does not inhibit” and the “LVOT gradients, symptoms, exercise performance and health status” value [8] was “effective in reducing LVOT gradients and improving symptoms, exercise performance and health status”.
